IC50 data for 28 molecules are collected here from US20240174662A1, “SMALL MOLECULE INHIBITORS OF SALT INDUCIBLE KINASES” (Janssen Biotech, Inc., priority 2021, published 2024).

pIC50: −log10 of the molar value. Where only a bound is given, the exact number is not on record here.

Sequence of SIK2 (Q9H0K1 whole entry, species assumed): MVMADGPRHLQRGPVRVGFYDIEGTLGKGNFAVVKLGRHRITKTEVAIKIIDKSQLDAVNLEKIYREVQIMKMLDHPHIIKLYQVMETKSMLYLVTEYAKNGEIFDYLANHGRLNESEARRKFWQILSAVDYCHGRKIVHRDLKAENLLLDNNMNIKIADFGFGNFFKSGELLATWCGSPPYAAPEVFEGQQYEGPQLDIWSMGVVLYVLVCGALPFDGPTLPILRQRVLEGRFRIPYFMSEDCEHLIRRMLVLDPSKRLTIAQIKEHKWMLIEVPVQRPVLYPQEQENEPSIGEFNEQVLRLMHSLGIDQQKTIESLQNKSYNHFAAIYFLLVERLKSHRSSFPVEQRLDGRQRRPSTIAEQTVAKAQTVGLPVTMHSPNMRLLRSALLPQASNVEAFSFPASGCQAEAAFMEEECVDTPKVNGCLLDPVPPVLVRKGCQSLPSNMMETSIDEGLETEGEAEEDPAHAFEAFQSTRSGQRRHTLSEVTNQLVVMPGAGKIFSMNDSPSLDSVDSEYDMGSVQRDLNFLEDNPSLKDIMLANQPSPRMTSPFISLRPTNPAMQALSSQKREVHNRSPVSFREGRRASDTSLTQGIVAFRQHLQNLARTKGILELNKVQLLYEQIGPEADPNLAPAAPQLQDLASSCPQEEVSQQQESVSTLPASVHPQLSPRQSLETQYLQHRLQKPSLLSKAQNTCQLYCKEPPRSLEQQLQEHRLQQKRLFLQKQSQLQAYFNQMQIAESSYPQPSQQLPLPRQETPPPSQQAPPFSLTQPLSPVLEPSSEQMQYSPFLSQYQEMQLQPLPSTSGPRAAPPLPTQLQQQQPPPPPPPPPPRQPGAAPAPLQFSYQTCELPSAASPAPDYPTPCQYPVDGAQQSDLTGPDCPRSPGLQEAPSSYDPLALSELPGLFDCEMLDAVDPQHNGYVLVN

For this test, the target named is SIK2 (Homo sapiens (Human), UniProt Q9H0K1). The test is described as follows: SIK2 Enzymatic Assay Version 2 (High ATP). The format is biochemical. Conditions: 3 mM ATP and 200 μM HDAC5tide final, ADP-Glo Max luminescence. The method, boiled down:
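Run at room temperature; SIK2 enzyme at 6 nM (2× final) preincubated with compound 30 min before reaction. ADP formation detected by ADP-Glo Max (2 h reagent, 1 h detection) with luminescence read-out.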
For the molecule `CCN1CC[C@@H]1COc1cnn(C)c1-c1ccc2nc(Nc3cc(C)nc(C)n3)cn2c1` [Example 476, N-(2,6-dimethylpyrimidin-4-yl)-6-[4-[[(2R)-1-ethylazetidin-2-yl]methoxy]-2-methyl-pyrazol-3-yl]imidazo[1,2-a]pyridin-2-amine], the pIC50 was 8.51. To `CN1C[C@@H](c2ccccc2)C[C@@H]1COc1cnn(C)c1-c1ccn2nc(NC(=O)C3CC3)cc2c1` [Example 258, N-[5-[2-methyl-4-[[(2R,4R)-1-methyl-4-phenyl-pyrrolidin-2-yl]methoxy]pyrazol-3-yl]pyrazolo[1,5-a]pyridin-2-yl]cyclopropanecarboxamide] belongs 8.14. To `Cc1cc(Nc2cc3cc(-c4c(CO[C@@H]5CN(C)C[C@H]5C)cnn4C)ccn3n2)nc(C)n1` (relative stereo) [Example 365, Trans-*R, *S—N-(2,6-dimethylpyrimidin-4-yl)-5-[4-[(1,4-dimethylpyrrolidin-3-yl)oxymethyl]-2-methyl-pyrazol-3-yl]pyrazolo[1,5-a]pyridin-2-amine] belongs 8.89; to `Cc1onc(O[C@H]2C[C@@H]3C[C@H]2CN3)c1-c1ccn2nc(NC(=O)C3CC3)cc2c1` (single isomer, unassigned) [Example 217, N-(5-(3-(((1*S,4*S,5*R)-2-azabicyclo[2.2.1]heptan-5-yl)oxy)-5-methylisoxazol-4-yl)pyrazolo[1,5-a]pyridin-2-yl)cyclopropanecarboxamide], 7.62.

Molecule `Cc1cnc(Nc2cc3cc(-c4c(CO[C@@H]5CN(C)C[C@@H]5C)cnn4C)ccn3n2)cn1` (relative stereo) [Example 380, CIS—*S, *S-5-[4-[(1,4-dimethylpyrrolidin-3-yl)oxymethyl]-2-methyl-pyrazol-3-yl]-N-(5-methylpyrazin-2-yl)pyrazolo[1,5-a]pyridin-2-amine] showed a pIC50 of 8.51. To `CN1CC[C@H](Oc2cnn(C)c2-c2ccn3nc(Nc4cnc5c(ccn5C)c4)cc3c2)C1` [Example 460, 1-methyl-N-[5-[2-methyl-4-[(3S)-1-methylpyrrolidin-3-yl]oxy-pyrazol-3-yl]pyrazolo[1,5-a]pyridin-2-yl]pyrrolo[2,3-b]pyridin-5-amine] belongs 6.79; to `Cc1cc(Nc2cc3cc(-c4c(OC[C@H]5CCN5C)cnn4C)ccn3n2)nc(-c2cccnc2)n1` [Example 116, 5-[2-methyl-4-[[(2R)-1-methylazetidin-2-yl]methoxy]pyrazol-3-yl]-N-[6-methyl-2-(3-pyridyl)pyrimidin-4-yl]pyrazolo[1,5-a]pyridin-2-amine], over 9.07; to `C[C@@H]1C[C@H]1C(=O)Nc1cc2cc(-c3c(OC[C@H]4CCN4C)cnn3C)ccn2n1` [Example 14, (1R,2R)-2-methyl-N-[5-[2-methyl-4-[[(2R)-1-methylazetidin-2-yl]methoxy]pyrazol-3-yl]pyrazolo[1,5-a]pyridin-2-yl]cyclopropanecarboxamide], 8.77. `CCN1CC[C@@H]1COc1cnn(C)c1-c1ccn2nc(Nc3cc(C)nc(CC4CC4)n3)cc2c1` [Example 179, N-[2-(cyclopropylmethyl)-6-methyl-pyrimidin-4-yl]-5-[4-[[(2R)-1-ethylazetidin-2-yl]methoxy]-2-methyl-pyrazol-3-yl]pyrazolo[1,5-a]pyridin-2-amine] gave a pIC50 of over 9.07. To `C[C@H]1CN(C)[C@@H]1COc1cnn(C)c1-c1ccn2nc(NC(=O)C3CC3)cc2c1` [Example 12, N-[5-[4-[[(2S,3S)-1,3-dimethylazetidin-2-yl]methoxy]-2-methyl-pyrazol-3-yl]pyrazolo[1,5-a]pyridin-2-yl]cyclopropanecarboxamide] belongs 6.93; to `Cc1cc(Nc2cc3cc(-c4c(OC[C@H]5CCN5CCF)cnn4C)ccn3n2)nnc1C` [Example 276, N-(5,6-dimethylpyridazin-3-yl)-5-[4-[[(2R)-1-(2-fluoroethyl)azetidin-2-yl]methoxy]-2-methyl-pyrazol-3-yl]pyrazolo[1,5-a]pyridin-2-amine], 9.05; to `CCc1cc(Nc2cc3cc(-c4c(OC[C@H]5CCN5CC)cnn4C)ccn3n2)nc(C)n1` [Example 172, 5-[4-[[(2R)-1-ethylazetidin-2-yl]methoxy]-2-methyl-pyrazol-3-yl]-N-(6-ethyl-2-methyl-pyrimidin-4-yl)pyrazolo[1,5-a]pyridin-2-amine], over 9.07. To `Cc1cc(Nc2cc3cc(-c4c(OC[C@H]5CCN5C)noc4C)ccn3n2)nc(C)n1` [Example 91, N-(2,6-dimethylpyrimidin-4-yl)-5-[5-methyl-3-[[(2R)-1-methylazetidin-2-yl]methoxy]isoxazol-4-yl]pyrazolo[1,5-a]pyridin-2-amine] belongs 8.19; to `Cc1cc(Nc2cc3cc(-c4c(OC[C@H]5CCN5C)cnn4C)ccn3n2)nnc1C` [Example 17, N-(5,6-Dimethylpyridazin-3-yl)-5-[2-methyl-4-[[(2R)-1-methylazetidin-2-yl]methoxy]pyrazol-3-yl]pyrazolo[1,5-a]pyridin-2-amine], over 9.07; to `CCN1CC[C@@H]1COc1cnn(C(F)F)c1-c1ccn2nc(Nc3ccnc(C)n3)cc2c1` [Example 477, 5-[2-(difluoromethyl)-4-[[(2R)-1-ethylazetidin-2-yl]methoxy]pyrazol-3-yl]-N-(2-methylpyrimidin-4-yl)pyrazolo[1,5-a]pyridin-2-amine], 8.68. To `CN1CC[C@H](Oc2cnn(C)c2-c2ccn3nc(Nc4cc(C(F)(F)F)ncn4)cc3c2)C1` [Example 459, 5-[2-methyl-4-[(3S)-1-methylpyrrolidin-3-yl]oxy-pyrazol-3-yl]-N-[6-(trifluoromethyl)pyrimidin-4-yl]pyrazolo[1,5-a]pyridin-2-amine] belongs 6.84. In turn, `Cn1ncc(OC[C@@H]2CCCN2)c1-c1ccn2nc(NC(=O)C3CC3)cc2c1` [Example 412, N-[5-[2-methyl-4-[[(2S)-pyrrolidin-2-yl]methoxy]pyrazol-3-yl]pyrazolo[1,5-a]pyridin-2-yl]cyclopropanecarboxamide] had a pIC50 of 6.91. This pIC50 and that of the molecule before are within 0.2 log units of each other. To `CN1[C@@H]2COC[C@H]1C[C@@H](OCc1cnn(C)c1-c1ccn3nc(NC(=O)C4CC4)cc3c1)C2` [Example 185, N-[5-[2-methyl-4-[[(1S,5R)-9-methyl-3-oxa-9-azabicyclo[3.3.1]nonan-7-yl]oxymethyl]pyrazol-3-yl]pyrazolo[1,5-a]pyridin-2-yl]cyclopropanecarboxamide] belongs 7.74; to `CNC(=O)c1nc(C)cc(Nc2cc3cc(-c4c(OC[C@H]5CCN5C)cnn4C)ccn3n2)n1` [Example 109, N,4-dimethyl-6-[[5-[2-methyl-4-[[(2R)-1-methylazetidin-2-yl]methoxy]pyrazol-3-yl]pyrazolo[1,5-a]pyridin-2-yl]amino]pyrimidine-2-carboxamide], 8.21.

`Cc1cc(Nc2cc3cc(-c4c(OC[C@H]5COC6(CCCC6)O5)cnn4C)ccn3n2)nc(C)n1` (single isomer, unassigned) [Example 299, (*S)—N-(2,6-dimethylpyrimidin-4-yl)-5-[4-(6,9-dioxaspiro[4.4]nonan-8-ylmethoxy)-2-methyl-pyrazol-3-yl]pyrazolo[1,5-a]pyridin-2-amine]: the pIC50 was 7.51. As to `Cc1cc(Nc2cc3cc(-c4c(O[C@H]5CCN(C)C5)cnn4C)ccn3n2)nc(C)n1` [Example 267, N-(2,6-dimethylpyrimidin-4-yl)-5-[2-methyl-4-[(3S)-1-methylpyrrolidin-3-yl]oxy-pyrazol-3-yl]pyrazolo[1,5-a]pyridin-2-amine], the pIC50 was 7.53.

As to `Cc1onc(O[C@H]2CNC[C@@H]2F)c1-c1ccn2nc(NC(=O)C3CC3)cc2c1` [Example 82, N-[5-[3-[(3S,4S)-4-fluoropyrrolidin-3-yl]oxy-5-methyl-isoxazol-4-yl]pyrazolo[1,5-a]pyridin-2-yl]cyclopropanecarboxamide], the pIC50 was 5.40. To `Cc1cc(Nc2cc3cc(-c4c(OC[C@H](O)C5CCC5)cnn4C)ccn3n2)nc(C)n1` (single isomer, unassigned) [Example 444, (*R)-1-cyclobutyl-2-[5-[2-[(2,6-dimethylpyrimidin-4-yl)amino]pyrazolo[1,5-a]pyridin-5-yl]-1-methyl-pyrazol-4-yl]oxy-ethanol] belongs 6.81; to `CO[C@H]1CNC[C@H]1Oc1noc(C)c1-c1ccn2nc(NC(=O)C3CC3)cc2c1` (single isomer, unassigned) [Example 385, (3*R,4*S)—N-[5-[3-(4-methoxypyrrolidin-3-yl)oxy-5-methyl-isoxazol-4-yl]pyrazolo[1,5-a]pyridin-2-yl]cyclopropanecarboxamide], 6.91. `COc1nnc(Nc2cc3cc(-c4c(OC[C@H]5CCN5C)cnn4C(F)F)ccn3n2)cc1C` [Example 97, 5-[2-(difluoromethyl)-4-[[(2R)-1-methylazetidin-2-yl]methoxy]pyrazol-3-yl]-N-(6-methoxy-5-methyl-pyridazin-3-yl)pyrazolo[1,5-a]pyridin-2-amine]: the pIC50 is 8.54. To `CN1CCC[C@@H]1COc1cnn(C)c1-c1ccn2nc(NC(=O)C3CC3)cc2c1` [Example 239, N-[5-[2-methyl-4-[[(2R)-1-methylpyrrolidin-2-yl]methoxy]pyrazol-3-yl]pyrazolo[1,5-a]pyridin-2-yl]cyclopropanecarboxamide] belongs 7.64. In turn, `Cn1ncc(O[C@H]2CC[C@@H](O)CC2)c1-c1ccn2nc(NC(=O)C3CC3)cc2c1` [Example 404, N-[5-[4-(4-hydroxycyclohexoxy)-2-methyl-pyrazol-3-yl]pyrazolo[1,5-a]pyridin-2-yl]cyclopropanecarboxamide] showed a pIC50 of 6.92. This pIC50 is 0.72 log units lower than that of the molecule before.

As to `CN1CC[C@@H]1COc1cnn(C)c1-c1ccn2nc(Nc3ccnc(NC4CC4)n3)cc2c1` [Example 128, N2-cyclopropyl-N4-[5-[2-methyl-4-[[(2R)-1-methylazetidin-2-yl]methoxy]pyrazol-3-yl]pyrazolo[1,5-a]pyridin-2-yl]pyrimidine-2,4-diamine], the pIC50 is over 9.07.

Usually pIC50 stands for the negative decadic logarithm of the IC50, by convention in mol/L. Low values mean a large IC50, high ones a small IC50.
